Experimental data taken from patent publication US10183936B2, “Hepatitis B core protein allosteric modulators” (priority 2014, dated 2019).

Experiments:
[1] = tested on: HBV viral production in AD38 cells; assay: Viral load production in AD38 cells by quantitative PCR of the HBV core sequence in supernatant; type: cell-based; conditions: Hepatitis B virus, 144 h; 10 μM compound, 6 days at 37° C., viral load in supernatant compared against DMSO control wells; read-out: AD38 Viral Load (CpAM/DMSO %) at 10 μM
Method in brief: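 Read-out is TaqMan qPCR of the HBV core region in supernatant, quantitated against standards and referenced to DMSO controls (≥3 per plate). Cells: AD38 at 50,000/well, exposed to compound (added as 10× stock in 10% DMSO) for 6 days at 37° C.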

AD38 cells = assay: Viability of AD38 cells (Promega CellTiter-Glo) at the end of compound treatment; type: cell-based; conditions: 10 μM compound, 6 days, luminescence normalized against DMSO control wells (controls being 100%)
Method in brief: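 Luminescent CellTiter-Glo read-out, taken after supernatant was swapped for tetracycline-free 2% FBS medium with 1% DMSO, gave percent viability relative to DMSO controls set at 100%. Cells were plated at 50,000/well and exposed to compound, added as a 10× stock in 10% DMSO, for 6 days at 37° C.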

Structure (SMILES) | activity at 10 µM [1] | AD38 Viability Normalized Result (CPAM/DMSO %) at 10 μM (AD38 cells)
O=C(NCCc1cncs1)c1ccc2c(c1)NC(=O)c1ccccc1S2(=O)=O [Compound 1617] | 1% | 118%
O=C(NCCC1CCCCC1)c1ccc2c(c1)NC(=O)c1cnccc1S2 [Compound 1257] | 26% | 113%
O=C(Nc1ccccn1)c1ccc2c(c1)NC(=O)c1ccccc1S2 [Compound 1230] | 46% | 102%
O=C(NC[C@H](C(=O)O)c1ccccc1)c1ccc2c(c1)NC(=O)c1ccccc1S2 [Compound 1268, (R)-3-(11-oxo-10, 11-dihydrodibenzo [b,f] [1,4]thiazepine-8-carboxamido)-2-phenylpropanoic acid] | 77% | 106%
CN1C(=O)c2ccccc2Sc2ccc(C(=O)NCc3cncnc3)cc21 [Compound 1574] | 78% | 109%
CCc1ccc(CCNC(=O)c2ccc3c(c2)NC(=O)c2ccccc2S3)cc1 [Compound 1185] | 1% | 0%
O=C(NCC12CC3CC(CC(C3)C1)C2)c1ccc2c(c1)NC(=O)c1ccccc1S2 [Compound 1189] | 1% | 85%
COc1cc2c(cc1C(=O)NCCC1CCCCC1)NC(=O)c1ccccc1S2 [Compound 1287] | 11% | 96%
O=C(NCc1ccccc1)c1ccc2c(c1)NC(=O)c1ccccc1S2 [Compound 1107] | 2% | 106%
CN(C)S(=O)(=O)c1ccc(CCNC(=O)c2cc3c(cc2F)Sc2ccccc2C(=O)N3)cc1 [Compound 1507] | 11% | 96%
Cc1c(C(=O)NCCc2ccccn2)ccc2c1NC(=O)c1ccccc1S2 [Compound 1459] | 4% | 92%
O=C(Nc1nccs1)c1ccc2c(c1)NC(=O)c1cc(F)ccc1S2 [Compound 1329] | 62% | 109%
CN(C)S(=O)(=O)c1ccc(CCNC(=O)c2ccc3c(c2)NC(=O)c2c(F)cccc2S3)cc1 [Compound 1477] | 67% | 16%
O=C(NCCCCc1ccncc1)c1ccc2c(c1)NC(=O)c1ccccc1S2 [Compound 1149] | 5% | 118%
O=C(NCCc1ccc2ccccc2c1)c1ccc2c(c1)NC(=O)c1ccccc1S2 [Compound 1110] | 2% | 119%
O=C(NCc1cnco1)c1ccc2c(c1)NC(=O)c1c(F)cccc1S2 [Compound 1542] | 34% | 95%
O=C(Nc1ccc(F)cn1)c1ccc2c(c1)NC(=O)c1cc(F)ccc1S2 [Compound 1336] | 70% | 90%
CNc1ccccc1CNC(=O)c1ccc2c(c1)NC(=O)c1ccccc1S2 [Compound 1239, N-(2-(methylamino)benzyl)-11-oxo-10, 11-dihydrodibenzo [b,f] [1,4] thiazepine-8-carboxamide] | 33% | 106%
O=C(NC[C@H](O)c1ccccc1)c1ccc2c(c1)NC(=O)c1ccccc1S2 [Compound 1220] | 2% | 94%
Cl.O=C(NCC1CCNCC1)c1ccc2c(c1)NC(=O)c1ccccc1S2 [Compound 1609, 11-oxo-N-(piperidin-4-ylmethyl)-10, 11-dihydrodibenzo [b,f] [1,4] thiazepine-8-carboxamide hydrochloride] | 68% | 99%
O=C(NCc1ccccc1O)c1ccc2c(c1)NC(=O)c1ccccc1S2 [Compound 1219] | 5% | 100%
